Literature values in US12419890B2, “Administration of sumo-activating enzyme inhibitor and checkpoint inhibitors” (Takeda Pharmaceutical Company Limited, priority 2019, dated 2025).
Where two headings read alike, the source gives them in different places.

Key:
[1] = system: recurrent or metastatic cervical cancer; conditions: cited from earlier work
metastatic CRC = conditions: stated jointly for both drugs; cited from earlier work
MSI-H CRC = MSI-H CRC patients that progressed to fluoropyrimidine, oxaliplatin, and irinotecan containing regimens; cited from earlier work
advanced NSCLC = conditions: cited from earlier work
[2] = system: advanced cervical cancer, PD-L1 CPS>=1; conditions: cited from earlier work
[3] = 200 mg IV every three weeks, 77 patients

bevacizumab
HR for PFS ([1]; bevacizumab added to standard first line chemotherapy vs chemotherapy alone, 95% CI 0.54-0.82): 0.67 | HR for OS ([1]; bevacizumab added to standard first line chemotherapy vs chemotherapy alone, 95% CI 0.54-0.95): 0.71 | median PFS ([1]; bevacizumab added to standard first line chemotherapy, vs 5.9 months chemotherapy alone): 8.2 months | median OS ([1]; bevacizumab added to standard first line chemotherapy, vs 13.3 months chemotherapy alone): 17.0 months

trifluridine-tipiracil
median OS (metastatic CRC): 7 months | median PFS (metastatic CRC): 2 months

nivolumab
ORR (MSI-H CRC): 28% | responders whose DOR lasted more than six months (MSI-H CRC): 67%

pembrolizumab
5-year OS rate (advanced NSCLC; previously treated patients, PD-L1 expression 1 to 49%): 12.6% | 5-year OS rate (advanced NSCLC; previously treated patients, PD-L1 expression <1%): 3.5% | 5-year OS rate (advanced NSCLC; previously treated patients, PD-L1 expression >=50%): 25% | 5-year OS rate (advanced NSCLC; treatment-naive patients with PD-L1 expression >=50%): 29.6% | 5-year OS rate (advanced NSCLC; treatment-naive patients, PD-L1 <50%): 15.7% | ORR (MSI-H CRC): 36% | responders whose DOR lasted more than six months (MSI-H CRC): 78% | complete responses (CRs) [2, 3]: 2.6% | partial responses (PRs) [2, 3]: 11.7% | overall response rate (ORR) ([2]; 200 mg IV every three weeks, 77 patients, median follow-up 11.7 months, 95% CI 7.4, 24.1): 14.3% | estimated median duration of response (DOR) ([2]; 11 patients with a response by independent review): not reached | responders with a DOR of greater than or equal to 6 months ([2]; 11 patients with a response): 91%

CNC(=O)c1cc(Oc2ccc(NC(=O)Nc3ccc(Cl)c(C(F)(F)F)c3)c(F)c2)ccn1 [regorafenib]
median OS (metastatic CRC): 7 months | median PFS (metastatic CRC): 2 months
